Where a name gives a salt, the structure may show the parent alone.
test system: male mice; assay: Acute toxicity after oral administration; assay type: in vivo; settings: 4000 mg/kg oral, male mice, two weeks; dead/group of four
Experimental: Acute toxicity was determined two weeks after oral administration of 4000 mg/kg to male mice. Four mice (denominator) are used in each group and the dead numbers are given as the numerator. The compounds of the present invention show little, if any, toxicity.

| SMILES | Lethal Ratio |
| --- | --- |
| CCOC(=O)c1cccc2c(O)cc(-c3ccccc3Cl)nc12 [Example 100, Ethyl 2-(2-chlorophenyl)-4-hydroxyquinoline-8-carboxylate hydrochloride] | 0/4 |
| O=C(O)c1cccc2c(=O)cc(-c3ccccc3Cl)[nH]c12 [Example 84] | 0/4 |
| CCOC(=O)c1cccc2c1N=C(c1ccccc1Cl)CC2=O [Example 83, ethyl 2-(2-chlorophenyl)-4-quinolone-8-carboxylate] | 0/4 |

same assay, conditions: mouse, in vivo

| SMILES | Lethal Ratio |
| --- | --- |
| Cc1ccccc1-c1cc(=O)c2cc(C(=O)O)ccc2[nH]1 [Example 42] | 0/4 |
| CCCCCCn1c(-c2ccccc2)cc(=O)c2cc(C(=O)O)ccc21 [Example 20] | 1/4 |
| CCOC(=O)c1cccc2c(=O)cc(-c3ccc(C)cc3C)[nH]c12 [Example 94] | 1/4 |
| CCOC(=O)c1cccc2c(=O)cc(-c3ccc(Cl)cc3Cl)[nH]c12 [Example 89] | 0/4 |
| O=C(O)c1cccc2c(=O)cc(-c3ccccc3Cl)[nH]c12 [Example 85] | 0/4 |
| COC(=O)c1ccc2[nH]c(-c3ccccc3OC)cc(=O)c2c1 [Example 56] | 1/4 |
| COC(=O)c1ccc2[nH]c(-c3ccccc3I)cc(=O)c2c1 [Example 28] | 0/4 |

test system: SRS-A (slow reacting substance of anaphylaxis) contraction of ileum; assay: Anti-SRS-A action using ileus of guinea pigs; assay type: cell-based, Hartley strain male guinea pigs; settings: Cavia porcellus, 5 min, 1/1000 mM; guinea pig ileum; SRS-A 20 units; compound five minutes before; read-out: 1/1000 mM SRS-A Inhibition Ratio %
Procedure, shortened: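 Ileum from male Hartley guinea pigs (300 to 350 g) in oxygenated Tyrode with 10^-7 g/ml atropine and 10^-6 g/ml pyrilamine, contracted by 20 units SRS-A. Compound added five minutes before; isotonic contraction height compared with SRS-A alone.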

| SMILES | inhibition at 1 µM [%] |
| --- | --- |
| CCOC(=O)c1cccc2c(O)cc(-c3ccccc3Cl)nc12 [Example 100, Ethyl 2-(2-chlorophenyl)-4-hydroxyquinoline-8-carboxylate hydrochloride] | 70.5 |
| Cc1ccccc1-c1cc(=O)c2cc(C(=O)O)ccc2[nH]1 [Example 42] | 17.4 |
| CCCCCCn1c(-c2ccccc2)cc(=O)c2cc(C(=O)O)ccc21 [Example 20] | 83.9 |
| CCOC(=O)c1cccc2c(=O)cc(-c3ccc(C)cc3C)[nH]c12 [Example 94] | 78.6 |
| CCOC(=O)c1cccc2c(=O)cc(-c3ccc(Cl)cc3Cl)[nH]c12 [Example 89] | 55.6 |
| CCOC(=O)c1cccc2c1N=C(c1ccccc1Cl)CC2=O [Example 83, ethyl 2-(2-chlorophenyl)-4-quinolone-8-carboxylate] | 75.9 |
| O=C(O)c1cccc2c(=O)cc(-c3ccccc3Cl)[nH]c12 [Example 85] | 27.9 |
| COC(=O)c1ccc2[nH]c(-c3ccccc3OC)cc(=O)c2c1 [Example 56] | 25.2 |
| CCOC(=O)c1cccc2c(=O)cc(-c3ccc(OC)c(OC)c3)[nH]c12 [Example 98] | 20.4 |
| COC(=O)c1ccc2[nH]c(-c3cc(Cl)ccc3Cl)cc(=O)c2c1 [Example 39] | 66 |
| COC(=O)c1ccc2[nH]c(-c3ccncc3)cc(=O)c2c1 [Example 70] | 21.4 |
| O=C(OCCO)c1cccc2c(=O)cc(-c3ccc(Cl)cc3)[nH]c12 [Example 133] | 21.3 |
| O=C1CC(c2ccccc2Cl)=Nc2c1cccc2C(=O)OCCO [Example 109, Beta-Hydroxyethyl 2-(2-chlorophenyl)-4-quinolone-8-carboxylate] | 100 |
| CC(C)COC(=O)c1cccc2c(=O)cc(-c3ccccc3Cl)[nH]c12 [Example 112] | 25 |
| CC(O)COC(=O)c1cccc2c(=O)cc(-c3ccccc3Cl)[nH]c12 (stereo not drawn) [Example 125] | 15.6 |
| O=C(OCCO)c1cccc2c(=O)cc(-c3ccccc3F)[nH]c12 [Example 131] | 14 |
| O=C(O)c1ccc2[nH]c(-c3ccc(Cl)c(Cl)c3)cc(=O)c2c1 [Example 38] | 20.5 |
| COC(=O)c1ccc2[nH]c(-c3ccccc3I)cc(=O)c2c1 [Example 28] | 55.6 |

test system: carrageenin edema; assay: Carrageenin edema at the hind foot of rats; assay type: in vivo, SD-strain rats; settings: Rattus norvegicus, po, 3 h, 200 mg/kg per os, one hour before carrageenin; foot volume three hours after; read-out: % Inhibition (carrageenin edema)
Experimental: The anti-inflammatory action of the compounds of the present invention were evaluated by measuring the inhibition against carrageenin edema as set forth below. Carrageenin edema at the hind foot of rats: Experimental method. SD-strain rats of body weights of around 150 grams were used, each group consisting of five rats. A solution (0.1 ml) of 0.5% carrageenin dissolved in physiological saline water was subcutaneously injected into the right hind foot pat of the rats and, one hour prior to the injection of carrageenin, 200 mg/kg of test compound was given per os. Foot volumes of the rats before the carrageenin treatment and those of three hours after the treatment were measured and the differences were compared with those of the control group to adopt as a target of the effect of the compounds.

| SMILES | inhibition in vivo at 200 mg/kg [%] |
| --- | --- |
| Cc1ccccc1-c1cc(=O)c2cc(C(=O)O)ccc2[nH]1 [Example 42] | 11.8 |
| CCCCCCn1c(-c2ccccc2)cc(=O)c2cc(C(=O)O)ccc21 [Example 20] | 10.6 |
| CCOC(=O)c1cccc2c1N=C(c1ccccc1Cl)CC2=O [Example 83, ethyl 2-(2-chlorophenyl)-4-quinolone-8-carboxylate] | 22.5 |
| CCOC(=O)c1cccc2c(=O)cc(-c3ccc(OC)c(OC)c3)[nH]c12 [Example 98] | 16.1 |
| COC(=O)c1ccc2[nH]c(-c3cc(Cl)ccc3Cl)cc(=O)c2c1 [Example 39] | 30 |
| COC(=O)c1ccc2[nH]c(-c3ccncc3)cc(=O)c2c1 [Example 70] | 17.1 |
| O=C(OCCO)c1cccc2c(=O)cc(-c3ccc(Cl)cc3)[nH]c12 [Example 133] | 10 |
| O=C1CC(c2ccccc2Cl)=Nc2c1cccc2C(=O)OCCO [Example 109, Beta-Hydroxyethyl 2-(2-chlorophenyl)-4-quinolone-8-carboxylate] | 30.7 |
| CC(C)COC(=O)c1cccc2c(=O)cc(-c3ccccc3Cl)[nH]c12 [Example 112] | 10 |
| CC(O)COC(=O)c1cccc2c(=O)cc(-c3ccccc3Cl)[nH]c12 (stereo not drawn) [Example 125] | 17.2 |
| O=C(OCCO)c1cccc2c(=O)cc(-c3ccccc3F)[nH]c12 [Example 131] | 29.9 |
| O=C(O)c1ccc2[nH]c(-c3ccc(Cl)c(Cl)c3)cc(=O)c2c1 [Example 38] | 12.8 |
| COC(=O)c1ccc2[nH]c(-c3ccccc3I)cc(=O)c2c1 [Example 28] | 15.9 |

test system: platelet aggregation induced by ADP, collagen and AA; assay: Action against Platelet Coagulation (aggregation in platelet rich plasma of rabbits); assay type: cell-based, Male rabbits; settings: Oryctolagus cuniculus, AA 150 μM, final concentration 10^-4 M, read-out: Inhibition (%) of platelet aggregation, AA (150 μM)
Experimental: Action against Platelet Coagulation was determined as follows: Male rabbits with body weights of 3 kg or around were used. Blood was taken from their carotid artery and, immediately thereafter, 1/10 volume (to the blood) of 3.8% aqueous solution of sodium citrate was added thereto. The mixture was centrifuged at room temperature (400 g; 10 minutes) to give platelet rich plasma (abbreviated as PRP: containing 5×10^5 platelets per mm^3). The PRP was then placed into a cell for platelet coagulation meter (Niko Bioscience), stirred, 5 microliters of test compound solution in dimethyl sulfoxide was added and, one minute thereafter, 5 micromolar of ADP, 10 micrograms/ml of collagen or 25 microliters of arachidoic acid (AA) was added thereto to observe changes of extinctions. From the maximum coagulation value at the time of administration the of test compound against that at the time of the solvent addition, inhibition was calculated and the effect of the compounds against the platelet coagulation was determined.

| SMILES | inhibition at 100 µM [%] |
| --- | --- |
| COc1ccc2c(c1)c(CC(=O)O)c(C)n2C(=O)c1ccc(Cl)cc1 [Indomethacin] | 100 |
| CCOC(=O)c1cccc2c1N=C(c1ccccc1Cl)CC2=O [Example 83, ethyl 2-(2-chlorophenyl)-4-quinolone-8-carboxylate] | 100 |

same assay, conditions: Oryctolagus cuniculus, AA 150 μM, final concentration 10^-5 M, read-out: Inhibition (%) of platelet aggregation, AA (150 μM)

| SMILES | inhibition at 10 µM [%] |
| --- | --- |
| COc1ccc2c(c1)c(CC(=O)O)c(C)n2C(=O)c1ccc(Cl)cc1 [Indomethacin] | 100 |
| CCOC(=O)c1cccc2c1N=C(c1ccccc1Cl)CC2=O [Example 83, ethyl 2-(2-chlorophenyl)-4-quinolone-8-carboxylate] | 3.3 |

same assay, conditions: Oryctolagus cuniculus, AA 150 μM, final concentration 10^-6 M, read-out: Inhibition (%) of platelet aggregation, AA (150 μM)

| SMILES | inhibition at 1 µM [%] |
| --- | --- |
| COc1ccc2c(c1)c(CC(=O)O)c(C)n2C(=O)c1ccc(Cl)cc1 [Indomethacin] | 1.6 |

same assay, conditions: Oryctolagus cuniculus, ADP 5 μM, final concentration 10^-4 M, read-out: Inhibition (%) of platelet aggregation, ADP (5 μM)

| SMILES | inhibition at 100 µM [%] |
| --- | --- |
| COc1ccc2c(c1)c(CC(=O)O)c(C)n2C(=O)c1ccc(Cl)cc1 [Indomethacin] | 2.6 |
| CCOC(=O)c1cccc2c1N=C(c1ccccc1Cl)CC2=O [Example 83, ethyl 2-(2-chlorophenyl)-4-quinolone-8-carboxylate] | 18.5 |

same assay, conditions: Oryctolagus cuniculus, collagen 10 μg/ml, final concentration 10^-4 M, read-out: Inhibition (%) of platelet aggregation, Collagen (10 μg/ml)

| SMILES | inhibition at 100 µM [%] |
| --- | --- |
| COc1ccc2c(c1)c(CC(=O)O)c(C)n2C(=O)c1ccc(Cl)cc1 [Indomethacin] | 100 |
| CCOC(=O)c1cccc2c1N=C(c1ccccc1Cl)CC2=O [Example 83, ethyl 2-(2-chlorophenyl)-4-quinolone-8-carboxylate] | 100 |

same assay, conditions: Oryctolagus cuniculus, collagen 10 μg/ml, final concentration 10^-5 M, read-out: Inhibition (%) of platelet aggregation, Collagen (10 μg/ml)

| SMILES | inhibition at 10 µM [%] |
| --- | --- |
| COc1ccc2c(c1)c(CC(=O)O)c(C)n2C(=O)c1ccc(Cl)cc1 [Indomethacin] | 100 |
| CCOC(=O)c1cccc2c1N=C(c1ccccc1Cl)CC2=O [Example 83, ethyl 2-(2-chlorophenyl)-4-quinolone-8-carboxylate] | 14 |

same assay, conditions: Oryctolagus cuniculus, collagen 10 μg/ml, final concentration 10^-6 M, read-out: Inhibition (%) of platelet aggregation, Collagen (10 μg/ml)

| SMILES | inhibition at 1 µM [%] |
| --- | --- |
| COc1ccc2c(c1)c(CC(=O)O)c(C)n2C(=O)c1ccc(Cl)cc1 [Indomethacin] | 19.6 |

test system: passive cutaneous anaphylaxis (DNP-As homocytotropic antiserum); assay: passive cutaneous anaphylatic assay (PCA) in rats; assay type: in vivo, Wistar strain rats; settings: Rattus norvegicus, po, 1 h, 10 mg/kg orally, one hour before antigen, read-out: PCA Inhibition Ratio %
Procedure, shortened: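 Wistar rats were sensitised intradermally with diluted DNP-As homocytotropic antiserum and challenged 72 h later with i.v. DNP-As plus Evans Blue. Compounds were given orally at 10 mg/kg 1 h before antigen. Dye extracted from skin sites 30 min post-challenge gave inhibition relative to controls.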

| SMILES | inhibition in vivo at 10 mg/kg [%] |
| --- | --- |
| CCOC(=O)c1cccc2c(O)cc(-c3ccccc3Cl)nc12 [Example 100, Ethyl 2-(2-chlorophenyl)-4-hydroxyquinoline-8-carboxylate hydrochloride] | 29.7 |
| Cc1ccccc1-c1cc(=O)c2cc(C(=O)O)ccc2[nH]1 [Example 42] | 43.2 |
| CCCCCCn1c(-c2ccccc2)cc(=O)c2cc(C(=O)O)ccc21 [Example 20] | 26.4 |
| CCOC(=O)c1cccc2c(=O)cc(-c3ccc(C)cc3C)[nH]c12 [Example 94] | 25.7 |
| CCOC(=O)c1cccc2c(=O)cc(-c3ccc(Cl)cc3Cl)[nH]c12 [Example 89] | 26.2 |
| CCOC(=O)c1cccc2c1N=C(c1ccccc1Cl)CC2=O [Example 83, ethyl 2-(2-chlorophenyl)-4-quinolone-8-carboxylate] | 28.5 |
| O=C(O)c1cccc2c(=O)cc(-c3ccccc3Cl)[nH]c12 [Example 85] | 17 |
| COC(=O)c1ccc2[nH]c(-c3ccccc3OC)cc(=O)c2c1 [Example 56] | 22.3 |
| CCOC(=O)c1cccc2c(=O)cc(-c3ccc(OC)c(OC)c3)[nH]c12 [Example 98] | 16.4 |
| COC(=O)c1ccc2[nH]c(-c3cc(Cl)ccc3Cl)cc(=O)c2c1 [Example 39] | 24.8 |
| COC(=O)c1ccc2[nH]c(-c3ccncc3)cc(=O)c2c1 [Example 70] | 22.3 |
| O=C(OCCO)c1cccc2c(=O)cc(-c3ccc(Cl)cc3)[nH]c12 [Example 133] | 17 |
| O=C1CC(c2ccccc2Cl)=Nc2c1cccc2C(=O)OCCO [Example 109, Beta-Hydroxyethyl 2-(2-chlorophenyl)-4-quinolone-8-carboxylate] | 29.2 |
| CC(C)COC(=O)c1cccc2c(=O)cc(-c3ccccc3Cl)[nH]c12 [Example 112] | 24.3 |
| CC(O)COC(=O)c1cccc2c(=O)cc(-c3ccccc3Cl)[nH]c12 (stereo not drawn) [Example 125] | 10.4 |
| O=C(OCCO)c1cccc2c(=O)cc(-c3ccccc3F)[nH]c12 [Example 131] | 28.5 |
| O=C(O)c1ccc2[nH]c(-c3ccc(Cl)c(Cl)c3)cc(=O)c2c1 [Example 38] | 20.4 |
| COC(=O)c1ccc2[nH]c(-c3ccccc3I)cc(=O)c2c1 [Example 28] | 19.6 |

test system: not given; assay: not given; settings: cited from earlier work

| SMILES | effect on oral administration |
| --- | --- |
| O=C(O)c1cc(=O)c2c(OCC(O)COc3cccc4oc(C(=O)O)cc(=O)c34)cccc2o1 [Sodium chromoglicate] | does not show any effect on oral administration |
